Consider 23 molecules from patent US20250179059A1 (The Regents of the University of California, priority 2021, published 2025).

For assay [1], the target named is T1, human BRD4 bromodomain II (Homo sapiens, UniProt O60885).
T1 construct: human BRD4 bromodomain II [based on Genbank NM_058243, residues 349-460]; host or cells: E. coli
Briefly: Bromodomain binding assay (AlphaScreen), BRD4 BDII. In outline:
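Read-out is AlphaScreen signal (ex 680 nm, em 520-620 nm) from streptavidin donor beads on a biotinylated acetylated histone H4 (aa 1-21) peptide and nickel acceptor beads on the His6-tagged bromodomain. IC50 values come from curve fits of percentage peptide binding against compound concentration.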

Assay [2] deals with human SKM-1 acute myeloid leukemia cells. The assay can be described thus: SKM-1 antiproliferation cell-based assay (ATPlite). Particulars: Homo sapiens. In outline: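 Log-phase cells in RPMI 1640/15% FBS were seeded at 34722 cells/mL and exposed for 4 days to nine-concentration DMSO serial dilutions in triplicate. Viability was read as ATP luminescence (ATPlite 1step), and IC50 values came from variable-slope non-linear regression.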
On the technique in general: ATP-based viability assays read luminescence as a measure of living cells.

Where [3] appears, read: BRD4 BDII AlphaScreen assay, read-out: BRD4 BD2 IC50.
[4] abbreviates: SKM-1, SKM-1 antiproliferation assay.
Setting [5] is: AlphaScreen assay, Table C2, read-out: BRD4 BDII IC50.
The mark [6] stands for this setting: SKM-1, 96 h, SKM-1 antiproliferation assay, 4 days, Table C2.

Structures are written as SMILES. Where two headings read alike, the source gives them in different places.

What is called IC50 is the concentration needed to halve the response being measured. The term GI50 denotes the concentration giving 50% growth inhibition. A high value points to less potent growth inhibition. On to `COc1ncc(-c2nc(C)cc(-c3ccc(-n4ccn(C)c4=O)c(Cl)c3)c2O)cc1N1CC2CCC(C1)N2C(C)C` [Example 1039, 1-(2-chloro-4-(3-hydroxy-5′-(8-isopropyl-3,8-diazabicyclo[3.2.1]octan-3-yl)-6′-methoxy-6-methyl-[2,3′-bipyridin]-4-yl)phenyl)-3-methyl-1H-imidazol-2(3H)-one], for which, in assay [1] (setting [3]), the IC50 fell in the range of 1 to 10 nM. The GI50 in assay [2] (setting [4]) was in the range of 0.3 to 30 nM.
For `CC(C)N1CCC12CCN(c1cc(-c3cc(F)cc(-c4ccc(-n5ccn(C)c5=O)c(Cl)c4)c3O)cnc1N(C)C)C2` (stereo not shown) [Example 987, 1-(3-chloro-3′-(6-(dimethylamino)-5-(1-isopropyl-1,6-diazaspiro[3.4]octan-6-yl)pyridin-3-yl)-5′-fluoro-2′-hydroxy-[1,1′-biphenyl]-4-yl)-3-methyl-1H-imidazol-2(3H)-one] the same measures were 1 to 10 nM and 0.3 to 30 nM.
As for `CN1CCN(c2ccc(-c3cc(F)cc(-c4cnc(C(=O)O)c(N5CCNCC5)c4)c3O)cc2Cl)C1=O` [Example 398, 5−(3′-chloro-5-fluoro-2-hydroxy-4′-(3-methyl-2-oxoimidazolidin-1-yl)-[1,1′-biphenyl]-3-yl)-3-(piperazin-1-yl)picolinic acid], in assay [1] (setting [5]), the IC50 lay within 10 to 100 nM. The same molecule gave a 50% growth inhibitory concentration (GI50) in assay [2] (setting [6]) of at least 3000 nM.
As for `CC(=O)Nc1ccc(-c2cc(Cl)cc(-c3ccnc(N4CCNCC4)c3)c2O)cc1F` [Example 268, N-(5′-chloro-3-fluoro-2′-hydroxy-3′-(2-(piperazin-1-yl)pyridin-4-yl)-[1,1′-biphenyl]-4-yl)acetamide], the IC50 in assay [1] (setting [5]) lay in the range of 1 to 10 nM. The GI50 in assay [2] (setting [6]) was 30 to 300 nM.
In the case of `Cn1ccn(-c2ccc(-c3cc(F)cc(-c4cc(N5CCN6CCCCC6C5)c5cnn(C)c5c4)c3O)cc2Cl)c1=O` (stereo not shown) [Example 609, 1-(3-chloro-5′-fluoro-3′-(4-(hexahydro-1H-pyrido[1,2-a]pyrazin-2(6H)-yl)-1-methyl-1H-indazol-6-yl)-2′-hydroxy-[1,1′-biphenyl]-4-yl)-3-methyl-1H-imidazol-2(3H)-one], the IC50 in assay [1] (setting [5]) was in the range of 0.01 to 1 nM. Further, the GI50 in assay [2] (setting [6]) is 0.3 to 30 nM.
On the same counts, the results for `Cc1cc(-c2ccnc(N3CCNCC3)c2)c(O)c(-c2ccc(N3CCN(C)C3=O)c(Cl)c2)c1` [Example 306, l-(3-chloro-2′-hydroxy-5′-methyl-3′-(2-(piperazin-1-yl)pyridin-4-yl)-[1,1'-biphenyl]-4-yl)-3-methylimidazolidin-2-one] are 1 to 10 nM and 30 to 300 nM.
In the case of `Cc1cc(-c2cncc(N3CCN[C@H](C)C3)c2)c(O)c(-c2ccc(-n3ccn(C)c3=O)c(Cl)c2)c1` [Example 508, (R)-1-(3-chloro-2′-hydroxy-5′-methyl-3′-(5-(3-methylpiperazin-1-yl)pyridin-3-yl)-[1,1′-biphenyl]-4-yl)-3-methyl-1H-imidazol-2(3H)-one], the IC50 in assay [1] (setting [5]) lay in the range of 1 to 10 nM. This molecule also showed a GI50 in assay [2] (setting [6]) of 0.3 to 30 nM.
Turning to `COc1ncc(-c2cc(F)cc(-c3ccc(-n4ccn(C)c4=O)c(Cl)c3)c2O)cc1N1CC2(CC2)[C@](C)(O)C1` [Example 875], the IC50 in assay [1] (setting [3]) lay within 0.01 to 1 nM. The molecule further yielded a GI50 in assay [2] (setting [4]) of 0.3 to 30 nM.
With `CN(C)[C@H]1CCCN(c2cncc(-c3cc(F)cc(-c4ccc(-n5ccn(C)c5=O)c(Cl)c4)c3O)c2)C1` [Example 501, (S)-1-(3-chloro-3′-(5-(3-(dimethylamino)piperidin-1-yl)pyridin-3-yl)-5′-fluoro-2′-hydroxy-[1,1′-biphenyl]-4-yl)-3-methyl-1H-imidazol-2(3H)-one], the IC50 in assay [1] (setting [5]) is 0.01 to 1 nM. The molecule further yielded a GI50 in assay [2] (setting [6]) of 0.3 to 30 nM.
For the molecule `Cc1cc(-c2ccc(-n3ccn(C)c3=O)c(Cl)c2)c(O)c(-c2cncc(N3CCN(C(C)(C)C)CC3)c2)n1` [Example 1004, 1-(4-(5′-(4-(tert-butyl)piperazin-1-yl)-3-hydroxy-6-methyl-[2,3′-bipyridin]-4-yl)-2-chlorophenyl)-3-methyl-1H-imidazol-2(3H)-one], the IC50 in assay [1] (setting [3]) was in the range of 1 to 10 nM. Also, in assay [2] (setting [4]), the GI50 lay within 0.3 to 30 nM.
For `CNc1ncc(-c2cc(F)cc(-c3ccc(-n4ccn(C)c4=O)c(Cl)c3)c2O)cc1N1CCC2(CCN2C(C)C)C1` (stereo not shown) [Example 965, 1-{3-Chloro-5′-fluoro-2′-hydroxy-3′-[5-(1-isopropyl-1,6-diaza-spiro[3.4]oct-6-yl)-6-methylamino-pyridin-3-yl]-biphenyl-4-yl}-3-methyl-1,3-dihydro-imidazol-2-one] the same measures were 1 to 10 nM and 0.3 to 30 nM.
`CN1CC2(C1)CN(c1cncc(-c3cc(F)cc(-c4ccc(-n5ccn(C)c5=O)c(Cl)c4)c3O)c1)C2` [Example 488, 1-(3-chloro-5′-fluoro-2′-hydroxy-3′-(5-(6-methyl-2,6-diazaspiro[3.3]heptan-2-yl)pyridin-3-yl)-[1,1′-biphenyl]-4-yl)-3-methyl-1H-imidazol-2(3H)-one]: the 50% inhibitory concentration (IC50) in assay [1] (setting [5]) was 1 to 10 nM. For the same molecule, the GI50 in assay [2] (setting [6]) lay within 0.3 to 30 nM.
Take `Cn1ccn(-c2ccc(-c3cc(F)cc(-c4ccnc(N5CCC[C@H](N)C5)c4)c3O)cc2Cl)c1=O` [Example 411, (S)-1-(3′-(2-(3-aminopiperidin-1-yl)pyridin-4-yl)-3-chloro-5′-fluoro-2′-hydroxy-[1,1′-biphenyl]-4-yl)-3-methyl-1H-imidazol-2(3H)-one]: the IC50 in assay [1] (setting [5]) lay within 0.01 to 1 nM. The same molecule had a GI50 in assay [2] (setting [6]) of 0.3 to 30 nM.
As for `Cn1ccn(-c2ccc(-c3cc(F)cc(-c4ccnc(N5C[C@@H](O)[C@@H](O)C5)c4)c3O)cc2Cl)c1=O` [Example 739, 1-(3-chloro-3′-(2-((3S,4R)-3,4-dihydroxypyrrolidin-1-yl)pyridin-4-yl)-5′-fluoro-2′-hydroxy-[1,1′-biphenyl]-4-yl)-3-methyl-1H-imidazol-2(3H)-one], in assay [1] (setting [5]), the IC50 was in the range of 0.01 to 1 nM. The molecule further returned a GI50 in assay [2] (setting [6]) of 0.3 to 30 nM.
On the same counts, the results for `Cn1ccn(-c2ccc(-c3cc(F)cc(-c4ccnc(N5CCC(N6CCC(F)CC6)C5)c4)c3O)cc2Cl)c1=O` (stereo not shown) [Example 701, 1-(3-chloro-5′-fluoro-3′-(2-(3-(4-fluoropiperidin-1-yl)pyrrolidin-1-yl)pyridin-4-yl)-2′-hydroxy-[1,1′-biphenyl]-4-yl)-3-methyl-1H-imidazol-2(3H)-one] are 0.01 to 1 nM and 30 to 300 nM.
For `C[C@H]1CCCN(c2cc(-c3cc(F)cc(-c4ccc(-n5ccn(C)c5=O)c(Cl)c4)c3O)ccn2)C1` [Example 632, (S)-1-(3-chloro-5′-fluoro-2′-hydroxy-3′-(2-(3-methylpiperidin-1-yl)pyridin-4-yl)-[1,1′-biphenyl]-4-yl)-3-methyl-1H-imidazol-2(3H)-one] the same measures were 10 to 100 nM and 300 to 3000 nM.
For `Cn1ccn(-c2ccc(-c3cc(F)cc(-c4cc(N5CC6CCC(C5)N6)c5cnn(C)c5c4)c3O)cc2Cl)c1=O` [Example 607, 1-(3′-(4-(3,8-diazabicyclo[3.2.1]octan-3-yl)-1-methyl-1H-indazol-6-yl)-3-chloro-5′-fluoro-2′-hydroxy-[1,1′-biphenyl]-4-yl)-3-methyl-1H-imidazol-2(3H)-one] the same measures were 0.01 to 1 nM and 0.3 to 30 nM.
In the case of `CNc1cc(-c2ccc(-n3ccn(C)c3=O)c(Cl)c2)c(O)c(-c2cccc(N3CCN(C(C)(C)C)CC3)c2)n1` [Example 1031, 1-(4-(2-(3-(4-(tert-Butyl)piperazin-1-yl)phenyl)-3-hydroxy-6-(methylamino)pyridin-4-yl)-2-chlorophenyl)-3-methyl-1H-imidazol-2(3H)-one], the concentration for half-maximal inhibition (IC50) in assay [1] (setting [3]) fell in the range of 1 to 10 nM. This molecule had a GI50 in assay [2] (setting [4]) of 30 to 300 nM.
For `Cc1cc(-c2ccc(-n3ccn(C)c3=O)c(Cl)c2)c(N)c(-c2cccc(N3CCN(C(C)(C)C)CC3)c2)n1` [Example 992, 1-(4-(3-Amino-2-(3-(4-(tert-butyl)piperazin-1-yl)phenyl)-6-methylpyridin-4-yl)-2-chlorophenyl)-3-methyl-1H-imidazol-2(3H)-one] the same measures were 1 to 10 nM and 0.3 to 30 nM.
Take `CC(C)N1CCC12CCN(c1cc(-c3cc(F)cc(-c4ccc(-n5ccn(C)c5=O)c(Cl)c4)c3O)ccn1)C2` (stereo not shown) [Example 748, 1-(3-chloro-5′-fluoro-2′-hydroxy-3′-(2-(1-isopropyl-1,6-diazaspiro[3.4]octan-6-yl)pyridin-4-yl)-[1,1′-biphenyl]-4-yl)-3-methyl-1H-imidazol-2(3H)-one]: the IC50 in assay [1] (setting [5]) lay within 0.01 to 1 nM. In addition, the GI50 in assay [2] (setting [6]) was in the range of 0.3 to 30 nM.
For `CN1CCN(c2ccc(-c3cccc(-c4cncc(N5CCC(N)CC5)c4)c3O)cc2Cl)C1=O` [Example 305, 1-(3′-(5-(4-aminopiperidin-1-yl)pyridin-3-yl)-3-chloro-2′-hydroxy-[1,1′-biphenyl]-4-yl)-3-methylimidazolidin-2-one] the same measures were 1 to 10 nM and 30 to 300 nM.
For `Cc1cc(-c2ccnc(N3CCNCC3)c2)c(O)c(-c2ccc(-n3ccn(C)c3=O)c(Cl)c2)c1` [Example 420, 1-(3-chloro-2′-hydroxy-5′-methyl-3′-(2-(piperazin-1-yl)pyridin-4-yl)-[1,1′-biphenyl]-4-yl)-3-methyl-1H-imidazol-2(3H)-one] the same measures were 0.01 to 1 nM and 0.3 to 30 nM.
Consider `COCC(C)(C)N1CCN(c2cc(-c3cc(F)cc(-c4ccc(-n5ccn(C)c5=O)c(Cl)c4)c3O)ccn2)CC1` [Example 724, 1-(3-chloro-5′-fluoro-2′-hydroxy-3′-(2-(4-(1-methoxy-2-methylpropan-2-yl)piperazin-1-yl)pyridin-4-yl)-[1,1′-biphenyl]-4-yl)-3-methyl-1H-imidazol-2(3H)-one], for which the IC50 in assay [1] (setting [5]) lay within 0.01 to 1 nM. Also, the GI50 in assay [2] (setting [6]) lay within 0.3 to 30 nM.
